The source of these data is US10219516B2, “Molecules having pesticidal utility, and intermediates, compositions, and processes, related thereto” (priority 2015, dated 2019).

Read-outs that look alike come from different tables or passages of the source.

In test [1] the test system is Beet Armyworm (Spodoptera exigua, LAPHEG). The test can be described thus: Bioassay on Beet Armyworm (BAW), 128-well diet tray assay. It counts as in vivo. As for the experimental part:
(§1) Certain molecules disclosed in this document were tested against BAW and CL using procedures described in the following examples. In the reporting of the results, the “BAW & CL Rating Table” was used (See Table Section).
Bioassays on BAW were conducted using a 128-well diet tray assay. One to five second instar BAW larvae were placed in each well (3 mL) of the diet tray that had been previously filled with approximately 1.5 mL of artificial diet to which 50 μg/cm^2 of the test molecule (dissolved in 50 μL of 90:10 acetone-water mixture) had been applied (to each of eight wells) and then allowed to dry. Trays were covered with a clear self-adhesive cover, vented to allow gas exchange, and held at 25° C., 14:10 light-dark for five to seven days. Percent mortality was recorded for the larvae in each well; activity in the eight wells was then averaged. The results are indicated in the table entitled “Table ABC: Biological Results” (See Table Section).

In test [2] the test system is Cabbage Looper (Trichoplusia ni, TRIPNI). The test can be described thus: Bioassay on Cabbage Looper (CL), 128-well diet tray assay. Particulars: Trichoplusia ni. The format is in vivo. As for the experimental part: as §1
Bioassays on CL were conducted using a 128-well diet tray assay. one to five second instar CL larvae were placed in each well (3 mL) of the diet tray that had been previously filled with 1 mL of artificial diet to which 50 μg/cm^2 of the test molecule (dissolved in 50 μL of 90:10 acetone-water mixture) had been applied (to each of eight wells) and then allowed to dry. Trays were covered with a clear self-adhesive cover, vented to allow gas exchange, and held at 25° C., 14:10 light-dark for five to seven days. Percent mortality was recorded for the larvae in each well; activity in the eight wells was then averaged. The results are indicated in the table entitled “Table ABC: Biological Results” (See Table Section).

Setting [3] is: Beet Armyworm, 128-well diet tray assay, read-out: BAW rating.
Setting [4] is: Cabbage Looper, 128-well diet tray assay, read-out: CL rating.
The mark [5] stands for this setting: Species BAW (Beet Armyworm), read-out: BAW (Biological Results, rating).
[6] abbreviates: Species CL (Cabbage Looper), read-out: CL (Biological Results, rating).

With `O=C(Nc1ccc(F)cc1F)c1cc(NC(=O)[C@H]2[C@H](c3cc(Cl)cc(Br)c3)C2(Cl)Cl)ccc1Cl` (relative stereo) [PF39, 5-(trans-3-(3-Bromo-5-chlorophenyl)-2,2-dichlorocyclopropane-1-carboxamido)-2-chloro-N-(2,4-difluorophenyl)benzamide], the pest or weed control at 50 µg/cm2 in test [1] (setting [3]) and in test [2] (setting [4]) was 50 to 100% in each case.
Turning to `CC(C)(C)OC(=O)N(C(=O)OC(C)(C)C)c1c(F)ccc(NC(=O)c2cc(NC(=O)C3C(c4ccc(Cl)c(Br)c4)C3(Cl)Cl)ccc2Cl)c1F` (stereo not shown) [F513, tert-Butyl-N-((tert-butoxy)carbonyl)-N-(3-(5-(3-(3-bromo-4-chlorophenyl)-2,2-dichlorocyclopropane-1-carboxamido)-2-chlorobenzamido)-2,6-difluorophenyl)carbamate], the pest or weed control at 50 µg/cm2 in test [1] (setting [3]) and in test [2] (setting [4]) was 50 to 100% throughout.
On to `Cc1cc([N+](=O)[O-])ccc1NC(=O)c1cc(NC(=O)[C@H]2[C@H](c3cc(Cl)cc(Cl)c3)C2(Cl)Cl)ccc1Cl` (relative stereo) [PF75, trans-2-Chloro-5-(2,2-dichloro-3-(3,5-dichlorophenyl)cyclopropane-1-carboxamido)-N-(2-methyl-4-nitrophenyl)benzamide], for which the pest or weed control at 50 µg/cm2 in test [1] (setting [3]) and in test [2] (setting [4]) was 50 to 100% each time.
Regarding `N#Cc1ccc(NC(=O)c2cc(NC(=O)[C@H]3[C@H](c4cc(Cl)cc(Cl)c4)C3(Cl)Cl)ccc2Cl)cc1` (relative stereo) [F5, trans-2-Chloro-N-(4-cyanophenyl)-5-(2,2-dichloro-3-(3,5-dichlorophenyl)cyclopropane-1-carboxamido)benzamide], the pest or weed control at 50 µg/cm2 in test [1] (setting [5]) and in test [2] (setting [6]) was 50 to 100% in each case.
Take `CSc1ccc(NC(=O)[C@H]2[C@H](c3cc(Cl)cc(Cl)c3)C2(Cl)Cl)cc1C(=O)Nc1ccc(F)cc1` (relative stereo) [F115, trans-5-(2,2-Dichloro-3-(3,5-dichlorophenyl)cyclopropane-1-carboxamido)-N-(4-fluorophenyl)-2-(methylthio)benzamide]: the pest or weed control at 50 µg/cm2 in test [1] (setting [5]) and in test [2] (setting [6]) was 50 to 100% in each case.
On to `COc1c(Cl)cc([C@H]2[C@H](C(=O)Nc3ccc(Cl)c(C(=O)Nc4ccc(F)cc4)c3)C2(Cl)Cl)cc1Cl` (relative stereo) [PF156, trans-2-Chloro-5-(2,2-dichloro-3-(3,5-dichloro-4-methoxyphenyl)cyclopropane-1-carboxamido)-N-(4-fluorophenyl)benzamide], for which the pest or weed control at 50 µg/cm2 in test [1] (setting [3]) and in test [2] (setting [4]) was 50 to 100% each time.
With `O=C(Nc1c(F)cccc1F)c1cc(NC(=O)[C@H]2[C@H](c3cc(Br)cc(Br)c3)C2(Cl)Cl)ccc1Cl` (relative stereo) [F92, trans-2-Chloro-5-(2,2-dichloro-3-(3,5-dibromophenyl)cyclopropane-1-carboxamido)-N-(2,6-difluorophenyl)benzamide], the pest or weed control at 50 µg/cm2 in test [1] (setting [5]) and in test [2] (setting [6]) was 50 to 100% in each case.
In the case of `CN(C(=O)c1cc(NC(=O)[C@H]2[C@H](c3ccc(Cl)c(Cl)c3)C2(Cl)Cl)ccc1Cl)c1ccc(C#N)cc1F` (relative stereo) [F107, trans-2-Chloro-N-(4-cyano-2-fluorophenyl)-5-(2,2-dichloro-3-(3,4-dichlorophenyl)cyclopropane-1-carboxamido)-N-methylbenzamide], the pest or weed control at 50 µg/cm2 in test [1] (setting [5]) and in test [2] (setting [6]) was 50 to 100% throughout.
Turning to `O=C(Nc1ccc(NC(=O)c2cc(NC(=O)[C@H]3[C@H](c4cc(Cl)cc(Cl)c4)C3(Cl)Cl)ccc2Cl)cc1)c1ccccc1` (relative stereo) [PF104, trans-N-(4-Benzamidophenyl)-2-chloro-5-(2,2-dichloro-3-(3,5-dichlorophenyl)cyclopropane-1-carboxamido)benzamide], the pest or weed control at 50 µg/cm2 in test [1] (setting [3]) and in test [2] (setting [4]) was 50 to 100% throughout.
For `COCC(=O)Nc1ccc(NC(=O)c2cc(NC(=O)[C@H]3[C@H](c4cc(Cl)cc(Cl)c4)C3(Cl)Cl)ccc2Cl)cc1` (relative stereo) [PF27, trans-2-Chloro-5-(2,2-dichloro-3-(3,5-dichlorophenyl)cyclopropane-1-carboxamido)-N-(4-(2-methoxyacetamido)phenyl)benzamide], the pest or weed control at 50 µg/cm2 in test [1] (setting [3]) and in test [2] (setting [4]) was 50 to 100% in each case.
As for `Nc1c(F)ccc(NC(=O)c2cc(NC(=O)C3C(c4c(F)c(F)c(F)c(F)c4F)C3(Cl)Cl)ccc2Cl)c1F` (stereo not drawn) [F626, N-(3-Amino-2,4-difluorophenyl)-2-chloro-5-(2,2-dichloro-3-trans-(perfluorophenyl)cyclopropane-1-carboxamido)benzamide], the pest or weed control at 50 µg/cm2 in test [1] (setting [3]) and in test [2] (setting [4]) was 50 to 100% throughout.
`CN(C(=O)c1cc(NC(=O)[C@H]2[C@H](c3cc(Cl)cc(Cl)c3)C2(Br)Br)ccc1Cl)c1ccc(F)cc1` (relative stereo) [PF7, trans-2-Chloro-5-(2,2-dibromo-3-(3,5-dichlorophenyl)cyclopropane-1-carboxamido)-N-(4-fluorophenyl)-N-methylbenzamide]: the pest or weed control at 50 µg/cm2 in test [1] (setting [3]) and in test [2] (setting [4]) was 50 to 100% in each case.
On to `Cc1cc(F)ccc1NC(=O)c1cc(NC(=O)[C@H]2[C@H](c3cc(Cl)c(Cl)c(Cl)c3)C2(Cl)Cl)ccc1Cl` (relative stereo) [PF47, trans-2-Chloro-5-(2,2-dichloro-3-(3,4,5-trichlorophenyl)cyclopropane-1-carboxamido)-N-(4-fluoro-2-methylphenyl)benzamide], for which the pest or weed control at 50 µg/cm2 in test [1] (setting [3]) and in test [2] (setting [4]) was 50 to 100% throughout.
Take `O=C(Nc1ccccc1F)c1cc(NC(=O)[C@H]2[C@H](c3cc(Cl)cc(Cl)c3)C2(Cl)Cl)ccc1Cl` (relative stereo) [F17, trans-2-Chloro-5-(2,2-dichloro-3-(3,5-dichlorophenyl)cyclopropane-1-carboxamido)-N-(2-fluorophenyl)benzamide]: the pest or weed control at 50 µg/cm2 in test [1] (setting [5]) and in test [2] (setting [6]) was 50 to 100% each time.
As to `O=C(Nc1ncco1)c1cc(NC(=O)[C@H]2[C@H](c3cc(Cl)cc(Cl)c3)C2(Cl)Cl)ccc1Cl` (relative stereo) [F145, trans-2-Chloro-5-(2,2-dichloro-3-(3,5-dichlorophenyl)cyclopropane-1-carboxamido)-N-(oxazol-2-yl)benzamide], the pest or weed control at 50 µg/cm2 in test [1] (setting [5]) and in test [2] (setting [6]) was 50 to 100% throughout.
Regarding `CSc1ccc(NC(=O)c2cc(NC(=O)[C@H]3[C@H](c4cc(Cl)cc(Cl)c4)C3(Cl)Cl)ccc2Cl)cc1` (relative stereo) [F149, trans-2-Chloro-5-(2,2-dichloro-3-(3,5-dichlorophenyl)cyclopropane-1-carboxamido)-N-(4-(methylthio)phenyl)benzamide], the pest or weed control at 50 µg/cm2 in test [1] (setting [5]) and in test [2] (setting [6]) was 50 to 100% throughout.
For the compound `Cc1c(Cl)cc([C@H]2[C@H](C(=O)Nc3ccc(Cl)c(C(=O)Nc4ccc(F)cc4)c3)C2(Cl)Cl)cc1Cl` (relative stereo) [F119, trans-2-Chloro-5-(2,2-dichloro-3-(3,5-dichloro-4-methylphenyl)cyclopropane-1-carboxamido)-N-(4-fluorophenyl)benzamide], the pest or weed control at 50 µg/cm2 in test [1] (setting [5]) and in test [2] (setting [6]) was 50 to 100% each time.
